Measured values: patent US8354526B2, “Pyrido [4, 3-D] pyrimidinone derivatives as kinase inhibitors” (IRM LLC, priority 2008, dated 2013)
Like-named read-outs stand apart in the source and are kept apart here.

How the values were obtained:
hSyk (full length) = target: T1, hSyk (full length) (Homo sapiens, UniProt P43405); assay: Inhibition of enzymatic Syk kinase activity (HTRF); type: biochemical
T1 construct: Purified recombinant hSyk (full length)
Description: (§1) Purified recombinant hSyk (full length) and Zap70 (kinase domain) diluted in assay buffer are dispensed in 384 well proxi-plates. […] 50 nL of diluted compounds are added to the enzyme solutions and incubated for […] at room temperature, after which ATP and biotynilated peptide substrate are added. Substrate phosphorylation is a function of the HTRF signal measured following the addition of Cisbio-HTRF reagents.

BaF3/Tel-KIT = target: T2, BaF3/Tel-KIT (Homo sapiens, UniProt P10721); assay: BaF3/Tel-KIT cellular proliferation assay; type: cell-based, murine; details: read-out: IC50 in BaF3/Tel-KIT cellular assay
T2 construct: fused on or other part: Dimerizing part of Tel (ETV6), fused to c-Kit; P41212 (Transcription factor ETV6)
T2 sequence (P10721 589-937 limits assumed, change not shown): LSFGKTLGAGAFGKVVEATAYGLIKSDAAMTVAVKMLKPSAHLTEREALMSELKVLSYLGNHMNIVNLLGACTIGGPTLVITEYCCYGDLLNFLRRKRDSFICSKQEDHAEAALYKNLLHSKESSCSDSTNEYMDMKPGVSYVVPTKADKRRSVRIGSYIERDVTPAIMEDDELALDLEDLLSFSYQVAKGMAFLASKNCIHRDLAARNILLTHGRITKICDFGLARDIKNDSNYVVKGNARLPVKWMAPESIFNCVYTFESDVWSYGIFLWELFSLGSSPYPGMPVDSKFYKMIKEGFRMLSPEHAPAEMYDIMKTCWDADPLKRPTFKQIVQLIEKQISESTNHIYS
Description: (§2) Compounds of the invention are tested for their antiproliferative effect on Ba/F3 cells expressing either Tel-TrkA, Tel-TrkB or Tel-TrkC and an additional panel of 34 selected diverse kinases activated by fusion to the dimerizing partners Bcr or Tel (Abl, AlK, BMX, EphA3, EphB2, FGFR2, FGFR3, FGFR4, FGR, FLT1, FLT3, FLT4, FMS, IGF1R, InsR, JAK1, JAK2, JAK3, KDR, Kit, Lck, Lyn, MER, MET, PDGFRb, RET, RON, Ros-1, Src, Syk, TIE2, TYK2, Tie1, ZAP70). The antiproliferative effect of these compounds on the different cell lines and on the non transformed cells were tested at 12 different concentrations of 3-fold serially diluted compounds in 384 well plates as described above (in media lacking IL3). The IC50 values of the compounds the different cell lines were determined from the dose response curves obtained as describe above.
Compounds were tested for their ability to inhibit the proliferation of wt Ba/F3 cells and Ba/F3 cells transformed with Tel c-Kit fused tyrosine kinases. Untransformed Ba/F3 cells are maintained in media containing recombinant IL3. Cells are plated into 384 well TC plates at 5,000 cells in 50 ul media per well and test compound at 0.06 nM to 10 μM is added. […] After incubating the cells, 25 μL of BRIGHT GLO® (Promega) is added to each well following manufacturer's instructions and the plates are read using Analyst GT—Luminescence mode—50000 integration time in RLU.

BaF3/Tel-FMS = target: T3, BaF3/Tel-FMS (Homo sapiens, UniProt P07333); assay: BaF3/Tel-FMS cellular proliferation assay; type: cell-based, murine; details: read-out: IC50 in BaF3/Tel-FMS cellular assay
T3 construct: fused on or other part: Dimerizing part of Tel (ETV6), fused to FMS; it is part of the key as ETV6; P41212 (Transcription factor ETV6)
T3 sequence (P07333 582-910 limits assumed): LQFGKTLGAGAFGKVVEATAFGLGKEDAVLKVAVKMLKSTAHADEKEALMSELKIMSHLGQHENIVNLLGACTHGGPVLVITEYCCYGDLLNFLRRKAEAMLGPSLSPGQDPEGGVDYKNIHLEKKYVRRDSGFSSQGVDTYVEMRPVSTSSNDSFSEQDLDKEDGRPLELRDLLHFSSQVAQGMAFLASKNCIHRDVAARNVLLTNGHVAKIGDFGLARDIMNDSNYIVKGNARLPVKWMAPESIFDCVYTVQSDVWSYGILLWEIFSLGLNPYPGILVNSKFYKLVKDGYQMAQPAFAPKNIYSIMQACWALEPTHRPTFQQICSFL
Description: as §2

BaF3/Tel-KDR = target: T4, BaF3/Tel-KDR (Homo sapiens, UniProt P35968); assay: BaF3/Tel-KDR cellular proliferation assay; type: cell-based, murine; details: read-out: IC50 in BaF3/Tel-KDR cellular assay
T4 construct: fused on or other part: Dimerization domain of Tel (ETV6), fused to KDR; it is part of the key as ETV6; The host cells also express luciferase, which serves only as the read-out; P41212 (Transcription factor ETV6)
T4 sequence (P35968 834-1162 limits assumed, change not shown): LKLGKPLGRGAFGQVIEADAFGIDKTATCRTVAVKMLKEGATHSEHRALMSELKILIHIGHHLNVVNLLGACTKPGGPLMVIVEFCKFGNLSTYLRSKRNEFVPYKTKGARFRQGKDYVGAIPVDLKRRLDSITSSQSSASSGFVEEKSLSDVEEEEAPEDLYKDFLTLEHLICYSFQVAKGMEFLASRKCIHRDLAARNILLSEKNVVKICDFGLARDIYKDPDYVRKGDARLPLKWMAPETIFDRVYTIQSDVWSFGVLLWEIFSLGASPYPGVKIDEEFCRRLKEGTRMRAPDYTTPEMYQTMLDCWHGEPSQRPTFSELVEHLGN
Description: (§3) Cells are maintained in RPMI/10% fetal calf serum (RPMI/FCS) supplemented with penicillin 50 μg/mL, streptomycin 50 μg/mL and L-glutamine 200 mM. Untransformed Ba/F3 cells are similarly maintained with the addition of murine recombinant IL3. Cells are dispensed into 384-well format plate at 5000 cell/well in 50 μL of culture medium. Compounds of the invention are dissolved and diluted in dimethylsufoxide (DMSO). Twelve points 1:3 serial dilutions are made into DMSO to create concentrations gradient ranging from 10 mM to 0.05 μM. Cells are added with 50 nL of diluted compounds and incubated for 48 hours in cell culture incubator. Luminiscent signal is measured following the addition of Bright Glo® (Promega) luciferase substrate. IC50 values are calculated by linear regression analysis of the percentage inhibition of each compound at 12 concentrations.

Zap70 (kinase domain) = target: T5, Zap70 (kinase domain) (Homo sapiens, UniProt P43403); assay: Inhibition of enzymatic Zap70 kinase activity (HTRF); type: biochemical
T5 construct: Zap70 (kinase domain)
T5 sequence (P43403 338-600 limits assumed): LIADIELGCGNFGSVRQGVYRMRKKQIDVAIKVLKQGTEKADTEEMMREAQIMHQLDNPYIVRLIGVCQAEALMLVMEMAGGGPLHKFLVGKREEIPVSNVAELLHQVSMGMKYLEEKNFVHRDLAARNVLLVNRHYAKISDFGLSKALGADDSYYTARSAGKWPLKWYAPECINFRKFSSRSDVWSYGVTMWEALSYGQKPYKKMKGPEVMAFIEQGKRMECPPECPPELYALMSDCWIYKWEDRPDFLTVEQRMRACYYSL
Description: as §1

BaF3/Tel-Syk = target: T6, BaF3/Tel-Syk (Homo sapiens, UniProt P43405); assay: BaF3/Tel-Syk cellular proliferation assay; type: cell-based, murine; details: read-out: IC50 in BaF3/Tel-Syk cellular assay
T6 construct: fused on or other part: Dimerization domain of Tel (ETV6), fused to Syk; it is part of the key as ETV6; The host cells also express luciferase, which serves only as the read-out; P41212 (Transcription factor ETV6)
Description: as §3

[1] = IC50 for Syk inhibition, Table 2, read-out: Syk HTRF

SMILES | IC50 (hSyk (full length); [1]) [nM] | further results
COc1ccc(-c2cc3ncn(C)c(=O)c3c(NCCc3ccccn3)n2)cc1OC [Example 189] | 258 | 
O=c1[nH]cnc2cc(-c3ccccc3)nc(Nc3ccc(N4CCOCC4)cc3)c12 [Example 4a, 5-(4-morpholinophenylamino)-7-phenylpyrido[4,3-d]pyrimidin-4(3H)-one] |  | GI50 (BaF3/Tel-KIT): 30 nM; GI50 (BaF3/Tel-FMS): 7 nM; GI50 (BaF3/Tel-KDR): 1860 nM; IC50 (hSyk (full length); read-out: IC50 in Syk enzymatic assay): 90 nM; IC50 (Zap70 (kinase domain)): 38 µM; GI50 (BaF3/Tel-Syk): 160 nM
CC(C)Nc1nc(-c2cnn(C)c2)cc2ncn(C)c(=O)c12 [Example 317] | 126 | 
CNc1nc(-c2ccc(C(C)(C)O)nc2)cc2ncn(C)c(=O)c12 [Example 352] | 376 | 
COc1ccc(-c2cc3ncn(C)c(=O)c3c(Nc3ccc4cn[nH]c4c3)n2)cc1OC [Example 418] | 531 | 
COc1cc(-c2cc3ncn(C)c(=O)c3c(NCc3ccncc3)n2)ccc1N [Example 194] | 104 | 
Cn1cnc2cc(-c3ccc4c(c3)NC(=O)C4)nc(NCc3ccnc(N)c3)c2c1=O [Example 278] | 84.3 | 
CC(C)Nc1nc(-c2ccc(C(C)(C)O)nc2)cc2ncn(C)c(=O)c12 [Example 6] | 190 | 
O=c1[nH]cnc2cc(-c3cc(Cl)ccc3Cl)nc(Nc3ccc(N4CCOCC4)cc3)c12 [Example 254] | 1120 | 
O=c1[nH]cnc2cc(NCc3ccncc3)nc(Nc3ccc(N4CCOCC4)cc3)c12 [Example 25] | 61 | 
COc1cc(-c2cc3ncn(C)c(=O)c3c(NCC(F)F)n2)ccc1OCCCN1CCOCC1 [Example 366] | 113 | 
COCCOc1cc(-c2cc3ncn(C)c(=O)c3c(NCC(F)F)n2)ccc1OC [Example 270] | 139 | 
CNc1cc(CNc2nc(-c3ccc(OC)c(OC)c3)cc3ncn(C)c(=O)c23)ccn1 [Example 183] | 126 | 
CC(C)Nc1nc(-c2cnc3[nH]ccc3c2)cc2ncn(C)c(=O)c12 [Example 324] | 340 | 
COc1cc(-c2cc3ncn(C)c(=O)c3c(NC[C@H](C)O)n2)ccc1OCCCN1CCOCC1 [Example 372] | 114 | 
COc1ccc(-c2cc3ncn(C)c(=O)c3c(NCc3ccncc3)n2)cc1OC [Example 114] | 40 | 
O=c1[nH]cnc2cc(N3CCS(=O)(=O)CC3)nc(Nc3ccc(N4CCOCC4)nc3)c12 [Example 305] | 823 | 
Cn1cnc2cc(-c3cccc(S(C)(=O)=O)c3)nc(NC3CC3)c2c1=O [Example 349] | 375 | 
CN1CCC(c2ccc(Nc3nc(N4CCC(N5CCCCC5)CC4)cc4nc[nH]c(=O)c34)cc2)CC1 [Example 313] | 42.7 | 
NCCCNc1cc2nc[nH]c(=O)c2c(Nc2ccc(N3CCOCC3)cc2)n1 [Example 13] | 5.66 | 
Cn1cnc2cc(-c3ccc4c(c3)NC(=O)C(C)(C)O4)nc(NCC(F)F)c2c1=O [Example 273] | 198 | 
CNS(=O)(=O)c1cc(-c2cc3ncn(C)c(=O)c3c(NC3CCC3)n2)ccc1OC [Example 415] | 131 | 
